Assay results: patent US20220402867A1, “SULFO-SUBSTITUTED BIARYL COMPOUND OR SALT THEREOF, PREPARATION METHOD THEREFOR, AND USE THEREOF” (Shanghai Litedd Co., Ltd., priority 2019, published 2022)

Experiments:
human PBMC (Th17 cells) = experiment: Th17 differentiation and IL-17 secretion in human PBMC; assay type: cell-based; settings: IL-17 ELISA after 48 hours; for Emax: maximum activation rate
Description: Test procedure: PBMC cells were first thawed and plated, and then stimulated with stimulating factors (anti-hCD28: 5 μg/mL; rhTGF-β1: 5 ng/mL; rhIL-6: 20 ng/mL; rhIL-23: 10 ng/Ml) to differentiate to Th17, while adding different concentrations of compounds. All test compounds were serially diluted at 3-fold dilution with DMSO, with 8 serial dilutions starting from the maximum concentration 3 μM. The supermatants were collected after 48 hours for IL-17 ELISA detection, and compared with the solvent group, to determine the activation rate of the compounds on Th17 cells to secrete IL-17. EC50 values were fitted with Graphad8.0, and the TOP values fitted by the software was Emax %.

GST-RORγ LBD (263-509) = molecular target: T1, GST-RORγ LBD (263-509) (Homo sapiens, UniProt P51449); experiment: TR-FRET assay of agonistic activity on RORγ receptor; assay type: biochemical; settings: for EC50: TR-FRET, GST-RORγ LBD with Biotin-SRC1; for Emax: maximum activation rate, TOP of fitted curve
T1 construct: GST-RORγ LBD ((263-509) (produced at ChemPartner))
T1 sequence (P51449 263-509): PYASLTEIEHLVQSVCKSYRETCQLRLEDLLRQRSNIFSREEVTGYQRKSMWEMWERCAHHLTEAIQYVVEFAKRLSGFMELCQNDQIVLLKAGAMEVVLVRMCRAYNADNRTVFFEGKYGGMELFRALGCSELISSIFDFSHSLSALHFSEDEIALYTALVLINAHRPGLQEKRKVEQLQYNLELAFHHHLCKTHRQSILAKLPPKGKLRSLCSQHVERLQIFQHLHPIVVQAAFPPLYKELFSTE
Method in brief: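 GST-RORγ LBD (75 nM solution) mixed 1:1 with Biotin-SRC1 (4 nM solution), then with Eu anti-GST and SA-APC; compounds in 10-point 3-fold series from 10 mM stock, duplicate.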

[1] = molecular target: T2, RORγt (RORγ-LBD chimeric receptor) (Homo sapiens, UniProt P51449); experiment: Luciferase reporter gene assay of RORγt agonistic activity in HEK293T cells; assay type: cell-based; set-up: Emax: dose or concentration left out as unconfirmed; settings: for EC50: HEK293T, GAL4 luciferase reporter, read-out: EC50; for Emax: HEK-293T
T2 construct: host or cells: HEK293T
T2 sequence (P51449 269-508 limits assumed): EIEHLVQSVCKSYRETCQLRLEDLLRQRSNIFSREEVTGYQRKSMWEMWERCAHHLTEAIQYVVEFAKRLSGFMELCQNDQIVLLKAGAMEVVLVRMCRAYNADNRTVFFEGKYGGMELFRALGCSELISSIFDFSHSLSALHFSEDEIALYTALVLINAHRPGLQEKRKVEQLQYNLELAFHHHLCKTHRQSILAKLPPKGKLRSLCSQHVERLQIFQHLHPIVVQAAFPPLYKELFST
Method in brief: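 EC50 derived from % activity (relative to positive control and vehicle) versus log concentration, using luciferase luminescence in transfected HEK293T cells. The cells carried a RORγ-LBD/GAL4 chimera plus a GAL4-promoter reporter; compounds were 3-fold serially diluted, 10 points from a 10 mM DMSO stock.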

| EC50 (GST-RORγ LBD (263-509)) [nM] | Emax (GST-RORγ LBD (263-509)) [%] | EC50 [1] [nM] | Emax [1] [%] | Compound | EC50 (human PBMC (Th17 cells)) [nM] | Emax (human PBMC (Th17 cells)) [%] |
| --- | --- | --- | --- | --- | --- | --- |
| 12.1 | 171 | 69 | 71.9 | CCS(=O)(=O)c1ccc(-c2c(Cl)cc(NC(=O)C(COC)c3ccc(S(=O)(=O)CC)cc3)cc2Cl)cc1 (stereo not drawn) [Example 13, N-(2,6-Dichloro-4′-(ethylsulfonyl)-[1,1′-biphenyl]-4-yl)-2-(4-(ethylsulfonyl)phenyl)-3-methoxypropionamide] | 6.2 | 139 |
| 19.5 | 192 | 81 | 63.5 | COCC(C(=O)Nc1cc(Cl)c(-c2ccc(S(=O)(=O)C3CC3)cc2)c(Cl)c1)c1ccc(S(C)(=O)=O)cc1 (stereo not drawn) [Example 20, N-(2,6-Dichloro-4′-(cyclopropylsulfonyl)-[1,1′-biphenyl]-4-yl)-3-methoxy-2-(4-(methylsulfonyl)phenyl)propionamide] | 18.9 | 228 |
| 16.6 | 187 | 181 | 85.6 | CCS(=O)(=O)c1ccc(C(COC)C(=O)Nc2cc(Cl)c(-c3ccc(S(=O)(=O)C4CC4)cc3)c(Cl)c2)cc1 (stereo not drawn) [Example 16, N-(2,6-Dichloro-4′-(cyclopropylsulfonyl)-[1,1′-biphenyl]-4-yl)-2-(4-(ethylsulfonyl)phenyl)-3-methoxypropionamide] | 27.3 | 202 |
| 8.5 | 222 | 37 | 69.6 | CCS(=O)(=O)c1ccc(-c2c(Cl)cc(NC(=O)Cc3ccc(S(=O)(=O)CC)cn3)cc2Cl)cc1 [Example 5, N-(2,6-Dichloro-4′-(ethylsulfonyl)-[1,1′-biphenyl]-4-yl)-2-(5-(ethylsulfonyl)pyridin-2-yl)acetamide] | 33.2 | 123 |

The remaining lines, values behind:

| Compound | EC50 (GST-RORγ LBD (263-509)) [nM] | Emax (GST-RORγ LBD (263-509)) [%] | EC50 [1] [nM] | Emax [1] [%] | EC50 (human PBMC (Th17 cells)) [nM] | Emax (human PBMC (Th17 cells)) [%] |
| --- | --- | --- | --- | --- | --- | --- |
| CCS(=O)(=O)c1ccc(CC(=O)Nc2cc(Cl)c(-c3ccc(S(C)(=O)=O)cc3)c(Cl)c2)nc1 [Example 8, N-(2,6-Dichloro-4′-(methylsulfonyl)-[1,1′-biphenyl]-4-yl)-2-(5-(ethylsulfonyl)pyridin-2-yl)acetamide] | 10.1 | 170 | 44 | 37.9 | 347 | 129 |
| COCC(C(=O)Nc1ccc(-c2ccc(S(=O)(=O)C3CC3)cc2)c(C(F)(F)F)c1)c1ccc(S(C)(=O)=O)cc1 (single isomer, unassigned) [Example 43, (S)—N-(4′-(cyclopropylsulfonyl)-2-(trifluoromethyl)-[1,1′-biphenyl]-4-yl)-3-methoxy-2-(4-(methylsulfonyl)phenyl)propionamide or (R)—N-(4′-(cyclopropylsulfonyl)-2-(trifluoromethyl)-[1,1′-biphenyl]-4-yl)-3-methoxy-2-(4-(methylsulfonyl)phenyl)propanamide] | 6.2 | 194 | 57 | 64.1 | 135 | 265 |
| CS(=O)(=O)c1ccc(CC(=O)Nc2cc(Cl)c(-c3ccc(S(=O)(=O)C4CC4)cc3)c(Cl)c2)cc1 [Example 11, N-(2,6-Dichloro-4′-(cyclopropylsulfonyl)-[1,1′-biphenyl]-4-yl)-2-(4-(methylsulfonyl)phenyl)acetamide] | 6.8 | 167 | 15 | 45 | 52.8 | 149 |
| CCS(=O)(=O)c1ccc(-c2c(Cl)cc(NC(=O)Cc3ccc(S(C)(=O)=O)cc3)cc2Cl)cc1 [Example 4, N-(2,6-Dichloro-4′-(ethylsulfonyl)-[1,1′-biphenyl]-4-yl)-2-(4-(methylsulfonyl)phenyl)acetamide] | 9.6 | 220 | 17 | 64 | 30.4 | 152 |
| CCS(=O)(=O)c1ccc(CC(=O)Nc2cc(Cl)c(-c3ccc(S(C)(=O)=O)cc3)c(Cl)c2)cc1 [Example 2, N-(2,6-dichloro-4′-(methylsulfonyl)-[1,1′-biphenyl]-4-yl)-2-(4-(ethylsulfonyl)phenyl)acetamide] | 9.1 | 210 | 19 | 43 | 61.6 | 138 |
| CCS(=O)(=O)c1ccc(-c2c(Cl)cc(NC(=O)Cc3ccc(S(C)(=O)=O)cn3)cc2Cl)cc1 [Example 9, N-(2,6-Dichloro-4′-(ethylsulfonyl)-[1,1′-biphenyl]-4-yl)-2-(5-(methylsulfonyl)pyridin-2-yl)acetamide] | 22.2 | 160 | 53 | 51.5 | 360 | 167 |
